Laboratory results published in US20140357713A1, “ANTIMICROBIAL COMPOUNDS AND METHODS OF USE” (NexMed Holdings, Inc., priority 2012, published 2014).
Where two headings read alike, the source gives them in different places.

Key:
Experiment in all cases: MIC assay with different strains, Example 35
Assay type in all cases: cell-based
[1] = test system: Corynebacterium jeikeium (ATCC 43734)
Description: (§1) The minimum inhibitory concentration (MIC) is used to determine the lowest concentration of a test product claiming antimicrobial effects that will inhibit growth of a microorganism. Each microbial suspension was adjusted approximately 10^7 to 10^8 colony forming units (CFU) per mL and labeled as the stock suspension. The stock suspension was further diluted to 1:200 in Mueller Hinton broth to obtain a test sample having a concentration of […]. The test sample was then tested for MIC as described in M202.R02. After incubation, each tube was examined for turbidity, which indicated growth or no growth. For the tubes where the product rendered the media turbid, an aliquot of the media was streaked onto agar plates to confirm growth or lack of growth.

[2] = test system: Burkholderia cepacia (ATCC 25416)
Description: as §1

[3] = test system: Streptococcus pneumonia (ATCC 6303)
Description: as §1

[4] = test system: Klebsiella oxytoca (ATCC 43165)
Description: as §1

[5] = test system: Serratia marcescens (ATCC 14756)
Description: as §1

[6] = test system: Enterobacter cloacae (ATCC 13047)
Description: as §1

[7] = test system: Haemophilus influenza (ATCC 19418)
Description: as §1

[8] = test system: Enterococcus faecalis (ATCC 19433)
Description: as §1

[9] = test system: Staphylococcus saprophyticus (ATCC 15305)
Description: as §1

[10] = test system: Acinetobacter iwoffi (ATCC 15309)
Description: as §1

[11] = test system: Klebsiella pneumonia (ATCC 11296)
Description: as §1

[12] = test system: Staphylococcus haemolyticus (ATCC 29970)
Description: as §1

[13] = test system: Staphylococcus aureus (MRSA) (ATCC 33592)
Description: as §1

[14] = test system: Proteus mirabilis (ATCC 7002)
Description: as §1

[15] = test system: Streptococcus pyogenes (ATCC 19615)
Description: as §1

With `CCCCCCCCCCCCOC(=O)C(C)NC.Cl` (centres unmarked) [Nex-59, Dodecyl 2-(methylamino)propanoate hydrochloride] the MIC ([1]; Corynebacterium jeikeium, ATCC43734, Table 19 summary, read-out: MIC) was at least 100 µg/mL, the MIC ([1]; Example 35) was “≦0.01%” and the Growth/no growth ([1]; Sample Concentration 0.01%) was “No”. The Growth/no growth ([1]; Sample Concentration 0.02%) was “No”, the Growth/no growth ([1]; Sample Concentration 0.04%) was “No” and the Growth/no growth ([1]; Sample Concentration 0.08%) was “No”. For the same compound, the Growth/no growth ([1]; Sample Concentration 0.16%) was “No”, the Growth/no growth ([1]; Sample Concentration 0.32%) was “No” and the Growth/no growth ([1]; Sample Concentration 0.63%) was “No”. The Growth/no growth ([1]; Sample Concentration 1.25%) was “No”, the Growth/no growth ([1]; Sample Concentration 2.5%) was “No” and the MIC ([2]; Burkholderia cepacia, ATCC25416, Table 19 summary, read-out: MIC) was 25000 µg/mL. The MIC ([2]; Example 35) was 2.5%, the Growth/no growth ([2]; Sample Concentration 0.01%) was “Growth” and the Growth/no growth ([2]; Sample Concentration 0.02%) was “Growth”. For the same compound, the Growth/no growth ([2]; Sample Concentration 0.04%) was “Growth”, the Growth/no growth ([2]; Sample Concentration 0.08%) was “Growth” and the Growth/no growth ([2]; Sample Concentration 0.16%) was “Growth”. The Growth/no growth ([2]; Sample Concentration 0.32%) was “Growth”, the Growth/no growth ([2]; Sample Concentration 0.63%) was “Growth” and the Growth/no growth ([2]; Sample Concentration 1.25%) was “Growth”. For the same compound, the MIC ([3]; Example 35) was 0.32%, the Growth/no growth ([3]; Sample Concentration 0.01%) was “Growth” and the Growth/no growth ([3]; Sample Concentration 0.02%) was “Growth”. The Growth/no growth ([3]; Sample Concentration 0.04%) was “Growth”, the Growth/no growth ([3]; Sample Concentration 0.08%) was “Growth” and the Growth/no growth ([3]; Sample Concentration 0.16%) was “Growth”. The MIC ([3]; Streptococcus pneumoniae, ATCC6303, Table 19 summary, read-out: MIC) was 3200 µg/mL, the MIC ([4]; Example 35) was 0.63% and the MIC ([4]; Klebsiella oxytoca, ATCC 43165 / ATCC 43615, Table 19 summary, strain printed ATCC 43615, read-out: MIC) was 6300 µg/mL. The Growth/no growth ([4]; Sample Concentration 0.01%) was “Growth”, the Growth/no growth ([4]; Sample Concentration 0.02%) was “Growth” and the Growth/no growth ([4]; Sample Concentration 0.04%) was “Growth”. The Growth/no growth ([4]; Sample Concentration 0.08%) was “Growth”, the Growth/no growth ([4]; Sample Concentration 0.16%) was “Growth” and the Growth/no growth ([4]; Sample Concentration 0.32%) was “Growth”. The Growth/no growth ([4]; Sample Concentration 0.63%) was “No”, the Growth/no growth ([4]; Sample Concentration 1.25%) was “No” and the Growth/no growth ([4]; Sample Concentration 2.5%) was “No”. For the same compound, the MIC ([5]; Example 35) was over 2.5%, the Growth/no growth ([5]; Sample Concentration 0.01%) was “Growth” and the Growth/no growth ([5]; Sample Concentration 0.02%) was “Growth”. For the same compound, the Growth/no growth ([5]; Sample Concentration 0.04%) was “Growth”, the Growth/no growth ([5]; Sample Concentration 0.08%) was “Growth” and the Growth/no growth ([5]; Sample Concentration 0.16%) was “Growth”. For the same compound, the Growth/no growth ([5]; Sample Concentration 0.32%) was “Growth”, the Growth/no growth ([5]; Sample Concentration 0.63%) was “Growth” and the Growth/no growth ([5]; Sample Concentration 1.25%) was “Growth”. The Growth/no growth ([5]; Sample Concentration 2.5%) was “Growth”, the MIC ([5]; Serratia marcescens, ATCC14756, Table 19 summary, read-out: MIC) was over 25000 µg/mL and the MIC ([6]; Enterobacter cloacae, ATCC13047, Table 19 summary, read-out: MIC) was 1600 µg/mL. The MIC ([6]; Example 35) was 0.16%, the Growth/no growth ([6]; Sample Concentration 0.01%) was “Growth” and the Growth/no growth ([6]; Sample Concentration 0.02%) was “Growth”. The Growth/no growth ([6]; Sample Concentration 0.04%) was “Growth”, the Growth/no growth ([6]; Sample Concentration 0.08%) was “Growth” and the MIC ([7]; Example 35) was “≦0.01%”. The MIC ([7]; Haemophilus, ATCC19418) was at least 100 µg/mL, the Growth/no growth ([7]; Sample Concentration 0.01%) was “No” and the Growth/no growth ([7]; Sample Concentration 0.02%) was “No”. The Growth/no growth ([7]; Sample Concentration 0.04%) was “No”, the Growth/no growth ([7]; Sample Concentration 0.08%) was “No” and the Growth/no growth ([7]; Sample Concentration 0.16%) was “No”. The Growth/no growth ([7]; Sample Concentration 0.32%) was “No”, the Growth/no growth ([7]; Sample Concentration 0.63%) was “No” and the Growth/no growth ([7]; Sample Concentration 1.25%) was “No”. The Growth/no growth ([7]; Sample Concentration 2.5%) was “No”, the MIC ([8]; Enterococcus faecalis, ATCC19433, Table 19 summary, read-out: MIC) was at least 100 µg/mL and the MIC ([8]; Example 35) was “≦0.01%”. The Growth/no growth ([8]; Sample Concentration 0.01%) was “No”, the Growth/no growth ([8]; Sample Concentration 0.02%) was “No” and the Growth/no growth ([8]; Sample Concentration 0.04%) was “No”. The Growth/no growth ([8]; Sample Concentration 0.08%) was “No”, the Growth/no growth ([8]; Sample Concentration 0.16%) was “No” and the Growth/no growth ([8]; Sample Concentration 0.32%) was “No”. The Growth/no growth ([8]; Sample Concentration 0.63%) was “No”, the Growth/no growth ([8]; Sample Concentration 1.25%) was “No” and the Growth/no growth ([8]; Sample Concentration 2.5%) was “No”. For the same compound, the MIC ([9]; Example 35) was 0.02%, the Growth/no growth ([9]; Sample Concentration 0.01%) was “Growth” and the Growth/no growth ([9]; Sample Concentration 0.02%) was “No”. For the same compound, the Growth/no growth ([9]; Sample Concentration 0.04%) was “No”, the Growth/no growth ([9]; Sample Concentration 0.08%) was “No” and the Growth/no growth ([9]; Sample Concentration 0.16%) was “No”. The Growth/no growth ([9]; Sample Concentration 0.32%) was “No”, the Growth/no growth ([9]; Sample Concentration 0.63%) was “No” and the Growth/no growth ([9]; Sample Concentration 1.25%) was “No”. For the same compound, the Growth/no growth ([9]; Sample Concentration 2.5%) was “No”, the MIC ([9]; Staphylococcus saprophyticus, ATCC15305, Table 19 summary, read-out: MIC) was 200 µg/mL and the MIC ([10]; Acinetobacter, ATCC15309, Table 19 summary, read-out: MIC) was 200 µg/mL. For the same compound, the MIC ([10]; Example 35) was 0.02%, the Growth/no growth ([10]; Sample Concentration 0.01%) was “Growth” and the MIC ([11]; Example 35) was 0.08%. For the same compound, the MIC ([11]; Klebsiella pneumoniae, ATCC11296, Table 19 summary, read-out: MIC) was 800 µg/mL, the Growth/no growth ([11]; Sample Concentration 0.01%) was “Growth” and the Growth/no growth ([11]; Sample Concentration 0.02%) was “Growth”. The Growth/no growth ([11]; Sample Concentration 0.04%) was “Growth”, the Growth/no growth ([11]; Sample Concentration 0.08%) was “No” and the Growth/no growth ([11]; Sample Concentration 0.16%) was “No”. For the same compound, the Growth/no growth ([11]; Sample Concentration 0.32%) was “No”, the Growth/no growth ([11]; Sample Concentration 0.63%) was “No” and the Growth/no growth ([11]; Sample Concentration 1.25%) was “No”. The Growth/no growth ([11]; Sample Concentration 2.5%) was “No”, the MIC ([12]; Example 35) was 0.02% and the Growth/no growth ([12]; Sample Concentration 0.01%) was “Growth”. The Growth/no growth ([12]; Sample Concentration 0.02%) was “No”, the Growth/no growth ([12]; Sample Concentration 0.04%) was “No” and the Growth/no growth ([12]; Sample Concentration 0.08%) was “No”. For the same compound, the Growth/no growth ([12]; Sample Concentration 0.16%) was “No”, the Growth/no growth ([12]; Sample Concentration 0.32%) was “No” and the Growth/no growth ([12]; Sample Concentration 0.63%) was “No”. The Growth/no growth ([12]; Sample Concentration 1.25%) was “No”, the Growth/no growth ([12]; Sample Concentration 2.5%) was “No” and the MIC ([12]; Staphylococcus haemolyticus, ATCC29970, Table 19 summary, read-out: MIC) was 200 µg/mL. For the same compound, the MIC ([13]; Example 35) was 0.02%, the Growth/no growth ([13]; Sample Concentration 0.01%) was “Growth” and the Growth/no growth ([13]; Sample Concentration 0.02%) was “No”. For the same compound, the Growth/no growth ([13]; Sample Concentration 0.04%) was “No”, the Growth/no growth ([13]; Sample Concentration 0.08%) was “No” and the Growth/no growth ([13]; Sample Concentration 0.16%) was “No”. The Growth/no growth ([13]; Sample Concentration 0.32%) was “No”, the Growth/no growth ([13]; Sample Concentration 0.63%) was “No” and the Growth/no growth ([13]; Sample Concentration 1.25%) was “No”. For the same compound, the Growth/no growth ([13]; Sample Concentration 2.5%) was “No”, the MIC ([13]; Staphylococcus aureus, Table 19 summary, read-out: MIC) was 200 µg/mL and the MIC ([14]; Example 35) was 0.32%. For the same compound, the MIC ([14]; Proteus mirabilis, ATCC7002, Table 19 summary, read-out: MIC) was 3200 µg/mL, the Growth/no growth ([14]; Sample Concentration 0.01%) was “Growth” and the Growth/no growth ([14]; Sample Concentration 0.02%) was “Growth”. The Growth/no growth ([14]; Sample Concentration 0.04%) was “Growth”, the Growth/no growth ([14]; Sample Concentration 0.08%) was “Growth” and the Growth/no growth ([14]; Sample Concentration 0.16%) was “Growth”. For the same compound, the MIC ([15]; Example 35) was “≦0.01%”, the Growth/no growth ([15]; Sample Concentration 0.01%) was “No” and the Growth/no growth ([15]; Sample Concentration 0.02%) was “No”. For the same compound, the Growth/no growth ([15]; Sample Concentration 0.04%) was “No”, the Growth/no growth ([15]; Sample Concentration 0.08%) was “No” and the Growth/no growth ([15]; Sample Concentration 0.16%) was “No”. The Growth/no growth ([15]; Sample Concentration 0.32%) was “No”, the Growth/no growth ([15]; Sample Concentration 0.63%) was “No” and the Growth/no growth ([15]; Sample Concentration 1.25%) was “No”. For the same compound, the Growth/no growth ([15]; Sample Concentration 2.5%) was “No” and the MIC ([15]; Streptococcus pyogenes, ATCC19615, Table 19 summary, read-out: MIC) was 100 µg/mL.
